Measured values taken from patent US8410056B2, “Pro-oxidant anti-cancer compounds” (priority 2006, dated 2013).
Structures can show the parent of a compound that is named as a salt.

Legend:
[1] = tested on: Jurkat, HBT11, MCF7, MCF7-C3; settings: Birringer et al, cited from earlier work; for pro-apoptotic activity: compared with α-TOS and isomers; for IC50: Jurkat, HBT11, MCF7, MCF7-C3, 2003
[2] = biological target: T1, complex II/SDH-dependent activity in NeuTL cells (Mus musculus, UniProt Q8K2B3+Q9CQA3+Q9CXV1+Q9CZB0); assay: MTT reduction assay of complex II/SDH activity in whole cells; format: cell-based, murine; settings: absence of added succinate; 4 h
T1 construct: For specifically measuring complex II activity in whole cells; endogenous in cells; host or cells: NeuTL murine breast cancer cells
T1 sequence (Q8K2B3 43-664): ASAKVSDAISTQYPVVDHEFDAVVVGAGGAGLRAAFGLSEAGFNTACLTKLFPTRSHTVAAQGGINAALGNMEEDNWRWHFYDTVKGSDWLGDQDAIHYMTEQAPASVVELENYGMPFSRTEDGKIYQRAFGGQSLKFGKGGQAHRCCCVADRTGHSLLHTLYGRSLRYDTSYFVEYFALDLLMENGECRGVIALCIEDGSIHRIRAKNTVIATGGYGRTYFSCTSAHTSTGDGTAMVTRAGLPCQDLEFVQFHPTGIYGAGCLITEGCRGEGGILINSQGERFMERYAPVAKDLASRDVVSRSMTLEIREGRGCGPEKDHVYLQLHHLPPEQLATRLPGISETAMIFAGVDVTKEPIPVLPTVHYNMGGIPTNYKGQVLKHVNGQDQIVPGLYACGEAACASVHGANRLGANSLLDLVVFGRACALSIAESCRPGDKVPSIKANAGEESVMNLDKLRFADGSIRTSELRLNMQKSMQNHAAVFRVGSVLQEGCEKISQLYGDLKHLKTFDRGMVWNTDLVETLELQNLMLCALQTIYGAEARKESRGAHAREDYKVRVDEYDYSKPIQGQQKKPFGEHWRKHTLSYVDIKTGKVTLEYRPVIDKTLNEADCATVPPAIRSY
T1 sequence (Q9CQA3 31-282): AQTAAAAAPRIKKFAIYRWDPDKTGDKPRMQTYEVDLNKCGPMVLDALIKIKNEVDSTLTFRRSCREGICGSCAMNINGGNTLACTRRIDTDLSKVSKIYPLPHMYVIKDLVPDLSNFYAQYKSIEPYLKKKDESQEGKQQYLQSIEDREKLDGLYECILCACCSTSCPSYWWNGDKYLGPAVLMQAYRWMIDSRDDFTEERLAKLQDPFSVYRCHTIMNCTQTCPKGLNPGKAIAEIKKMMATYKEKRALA
T1 sequence (Q9CZB0 30-169): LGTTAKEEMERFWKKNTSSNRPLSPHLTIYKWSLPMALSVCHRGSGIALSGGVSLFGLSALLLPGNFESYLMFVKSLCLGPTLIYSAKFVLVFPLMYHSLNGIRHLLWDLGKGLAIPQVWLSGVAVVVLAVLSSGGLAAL
T1 sequence (Q9CXV1 57-159): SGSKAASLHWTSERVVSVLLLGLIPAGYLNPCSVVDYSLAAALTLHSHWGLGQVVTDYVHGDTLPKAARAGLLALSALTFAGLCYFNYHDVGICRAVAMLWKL
Procedure: MTT assay. MTT solutions were prepared immediately before use by dissolving 2.5 mg/ml 3-(4,5-dimethyl[…] (MTT) (Sigma) in PBS alone or phenol red-free RPMI medium containing 20 mM succinic acid, pH 7.4. Stock solutions of 3-nitropropionic acid (3NPA) in ethanol, thenoyltrifluoroacetone (TTFA) in DMSO, 3-BP in PBS, α-TOS in DMSO, and MitoQ (Alleva et al, 2003, James et al, 2005) in ethanol were prepared. The drugs were tested on NeuTL cells cultured in exponential growth phase in 96-well microtitre plates using 4-8 replicate wells per dilution assayed. To assess the ability of MitoQ to restore MTT reduction, cells were pre-incubated for 60 min with 2 or 5 μM MitoQ. Final concentrations of ethanol or DMSO in cultures were ≦0.1%. Treated and control cells were allowed to reduce MTT to blue formazan crystals for 2 or 4 h at 37° C. and 5% CO2. After incubation, culture supernatants were removed except for 30 μl, before the formazan crystals were solubilized by addition of 150 μl DMSO, and absorbance values were measured at 570 nm using a Fluorostar Optima plate reader.
To this end, the present inventors investigated whether α-TOS interferes with UbQ binding in complex II. For specifically measuring complex II activity in whole cells, a short-term (1-2 h) assay was used based on the reduction of the tetrazolium salt, MTT (Maehara et al, 1988). […] For this, oxidative respiration of murine NeuTL breast cancer cells was sustained on high levels of succinate (20 mM), thereby promoting the SDH activity of complex II (Maehara et al, 1988). The cells were then assayed within 1-2 h for their ability to enzymatically reduce MTT, which under conditions of high succinate becomes a specific indicator of complex II/SDH-dependent activity (Maehara et al, 1988, Berridge and Tan, 1993).

[3] = tested on: Jurkat, U937, Meso-2; settings: Tomic-Vatic et al, 2005, cited from earlier work; for IC50: Jurkat, U937, Meso-2; for pro-apoptotic activity: ester bond replaced by amide bond
[4] = tested on: MCF7; settings: cited from earlier work
[5] = tested on: B16(F10); settings: He et al, 1997, cited from earlier work; for IC50: B16(F10)
[6] = tested on: mesothelioma; assay: Clinical study, patient with mesothelioma; format: in vivo; settings: same patient
Procedure: α-TOS was used to treat mesothelioma in a human cancer patient. […] The blood plasma levels were monitored and levels of α-TOS in the plasma attained 50 μM over prolonged periods during continual application. This is more than sufficient to kill the cancer cells based on in vitro analysis.
The patient was originally receiving high dose opiate medications, neuropathic pain medications, home oxygen, and was predicted to have a life expectancy of 6-8 weeks. After treatment with α-TOS, the patient no longer required analgesia or oxygen.
In December 2005, the patient started receiving transdermal delivery of α-TOS, prepared in a base cream and solubilised with dimethyl sulfoxide (DMSO).
In April 2007, therapy with α-TOS was commenced using a modified formulation mixed in a lipodermal cream (see below). […] In addition, a palpable lesion was visible growing out between the ribs and the right anterior chest wall. The patient was in very poor condition with a low ECOG- no CT scan could be performed at the time of commencing the α-TOS treatment because the patient was too moribund.
α-TOS formulation: 500 gms of Lipoderm cream plus 60 gms α-TOS compounded by the hospital pharmacy. About 30 gms of compounded mix was administered every few days, and the upper body was wrapped in plastic film (“saran wrap”) to improve absorption.

[7] = biological target: T2, α-tocopherol transfer protein (α-TTP) (Rattus norvegicus, UniProt P41034); settings: α-tocopherol 100%; Hosomi et al, 1997; cited from earlier work
T2 sequence (P41034 1-278): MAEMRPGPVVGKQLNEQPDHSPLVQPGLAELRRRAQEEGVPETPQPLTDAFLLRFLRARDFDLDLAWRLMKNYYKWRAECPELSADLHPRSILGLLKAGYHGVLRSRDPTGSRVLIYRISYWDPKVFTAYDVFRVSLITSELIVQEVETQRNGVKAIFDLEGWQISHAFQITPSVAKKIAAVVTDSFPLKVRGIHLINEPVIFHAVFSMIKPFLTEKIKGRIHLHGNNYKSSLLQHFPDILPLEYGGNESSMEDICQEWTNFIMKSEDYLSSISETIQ

## Cc1c(C)c2c(c(C)c1OC(=O)C=CC(=O)O)CCC(C)(CCCC(C)CCCC(C)CCCC(C)C)O2 (stereo not drawn) [Compound 3, α-tocopheryl maleate]
[1]
  pro-apoptotic activity: Even greater pro-apoptotic activity
  IC50: 22 µM

## O=C(O)CC[N+](=O)[O-] [Compound 3NPA, 3-nitropropionic acid]
[2]
  complex II-mediated MTT reduction: potent inhibitors of the complex II-mediated MTT reduction

## Cc1c(C)c2c(c(C)c1OC(=O)CCCC(=O)O)CCC(C)(CCCC(C)CCCC(C)CCCC(C)C)O2 (stereo not shown) [Compound 5]
[1]
  pro-apoptotic activity: decreased activity

## Cc1c(C)c2c(c(C)c1OC(=O)CC(C)CC(=O)O)CCC(C)(CCCC(C)CCCC(C)CCCC(C)C)O2 (stereo not shown) [Compound 6]
[1]
  pro-apoptotic activity: decreased activity

## Cc1c(C)c2c(c(C)c1OC(=O)CC(C)(C)CC(=O)O)CCC(C)(CCCC(C)CCCC(C)CCCC(C)C)O2 (stereo not shown) [Compound 7]
[1]
  pro-apoptotic activity: decreased activity

## COC(=O)CCC(=O)Oc1c(C)c(C)c2c(c1C)CCC(C)(CCCC(C)CCCC(C)CCCC(C)C)O2 (stereo not shown) [Compound 9]
[1]
  pro-apoptotic activity: without pro-apoptotic activity

## Cc1c(C)c2c(c(C)c1NC(=O)CCC(=O)O)CCC(C)(CCCC(C)CCCC(C)CCCC(C)C)O2 (stereo not shown) [Compound 12]
[3]
  IC50: 13 µM
  pro-apoptotic activity: further enhancement of pro-apoptotic activity

## Cc1c(C)c2c(c(C)c1NC(=O)C=CC(=O)O)CCC(C)(CCCC(C)CCCC(C)CCCC(C)C)O2 (stereo not shown) [Compound 13]
[3]
  IC50: 2 µM
  pro-apoptotic activity: further enhancement of pro-apoptotic activity

## COC(=O)CCC(=O)Nc1c(C)c(C)c2c(c1C)CCC(C)(CCCC(C)CCCC(C)CCCC(C)C)O2 (stereo not shown) [Compound 14]
[3]
  IC50: > 100 µM

## Cc1c(C)c2c(c(C)c1OC(=O)C(N)CCCCN)CCC(C)(CCCC(C)CCCC(C)CCCC(C)C)O2 (stereo not shown) [Compound 16]
[4]
  IC50: 12 µM

## Cc1c(C)c2c(c(C)c1CC(=O)O)CCC(C)(CCCC(C)CCCC(C)CCCC(C)C)O2 (stereo not shown) [Compound 22]
[4]; Shiau et al, 2006, footnote g
  EC50 [μg/ml]: 15-20^g μg/ml

## Cc1cc(OC(=O)CCC(=O)O)cc2c1OC(C)(CCCC(C)CCCC(C)CCCC(C)C)CC2 (stereo not shown) [Compound 35]
[1]
  pro-apoptotic activity: least effective
  IC50: 66 µM

## Cc1cc(OC(=O)C=CC(=O)O)cc2c1OC(C)(CCCC(C)CCCC(C)CCCC(C)C)CC2 (stereo not shown) [Compound 36]
[3]
  IC50: 49 µM

## Cc1cc(NC(=O)CCC(=O)O)cc2c1OC(C)(CCCC(C)CCCC(C)CCCC(C)C)CC2 (stereo not shown) [Compound 37]
[3]
  IC50: 20 µM
  pro-apoptotic activity: further enhancement of pro-apoptotic activity

## Cc1cc(NC(=O)C=CC(=O)O)cc2c1OC(C)(CCCC(C)CCCC(C)CCCC(C)C)CC2 (stereo not shown) [Compound 38]
[3]
  IC50: 9 µM
  pro-apoptotic activity: further enhancement of pro-apoptotic activity

## Cc1c(C)c2c(c(C)c1OC(=O)C(N)CCCCN)CCC(C)(CO)O2 (stereo not shown) [Compound 47]
[4]
  IC50: 194 µM

## CCCCCOCC1(C)CCc2c(C)c(OC(=O)C(N)CCCCN)c(C)c(C)c2O1 (stereo not shown) [Compound 48]
[4]
  IC50: 22 µM

## CCCCC(=O)OCC1(C)CCc2c(C)c(OC(=O)C(N)CCCCN)c(C)c(C)c2O1 (stereo not shown) [Compound 49]
[4]
  IC50: 15 µM

## CC(C)=CCC/C(C)=C/CC/C(C)=C/CC[C@]1(C)CCc2cc(O)cc(C)c2O1 [Compound 59, δ-tocotrienol]
[5]
  IC50: 10 µM
  potency in the murine B16-F10 melanoma cell model: most potent agent

## CC(C)=CCC/C(C)=C/CC/C(C)=C/CCC1(C)CCc2cc(O)ccc2O1 (stereo not shown) [Compound 60, desmethyl tocotrienol]
[5]
  IC50: 0.9 µM

## Nc1ccn([C@@H]2O[C@H](CO)[C@@H](O)C2(F)F)c(=O)n1 [Gemcitabine, reference compound]
[6]
  toxicity of other therapies (medical history): unacceptable levels of toxicity

## CCC1=C[C@@H]2CN(C1)Cc1c([nH]c3ccccc13)[C@@](C(=O)OC)(c1cc3c(cc1OC)N(C)[C@H]1[C@@](O)(C(=O)OC)[C@H](OC(C)=O)[C@]4(CC)C=CCN5CC[C@]31[C@@H]54)C2 [Vinorelbine, reference compound]
[6]
  toxicity of other therapies (medical history): severe exacerbation of peripheral neuropathy

## Oc1ccc(C2=Cc3ccc(O)cc3OC2)cc1 [phenoxodiol, reference compound]
[6]
  toxicity of other therapies (medical history): ongoing severe neuropathy

## Cc1c(C)c2c(c(C)c1O)CC[C@@](C)(CCC[C@H](C)CCC[C@H](C)CCCC(C)C)O2 [α-tocopherol]
[7]
  relative affinities for α-TTP: 100%

## Cc1cc(O)c(C)c2c1O[C@](C)(CCC[C@H](C)CCC[C@H](C)CCCC(C)C)CC2 [β-tocopherol]
[7]
  relative affinities for α-TTP: 38%

## Cc1c(O)cc2c(c1C)O[C@](C)(CCC[C@H](C)CCC[C@H](C)CCCC(C)C)CC2 [γ-tocopherol]
[7]
  relative affinities for α-TTP: 9%

## Cc1cc(O)cc2c1O[C@](C)(CCC[C@H](C)CCC[C@H](C)CCCC(C)C)CC2 [δ-tocopherol]
[7]
  relative affinities for α-TTP: 2%
